pIC50: −log10 of the molar value.
target: human recombinant LRRK2 protein (Homo sapiens (Human), UniProt Q5S007); experiment: LRRK2 Kinase Activity Assay (ADP-Glo); type: biochemical; settings: LRRK2 wt; LRRKtide peptide and ATP substrates; 1h-incubation at 37° C.
Procedure: LRRK2 Kinase reactions were carried out in 384-well white polystyrene plates in a final volume of 6 μl using ADP-Glo™ Kinase Assay kit (Promega Corp.). Compound and substrates (LRRKtide peptide and ATP) in assay buffer were first dispensed in wells. Kinase reaction was then started by the addition of human recombinant LRRK2 protein. After 1h-incubation at 37° C., the enzymatic reaction was stopped by the addition of 6 μl of ADP-Glo Reagent-1 and an additional 40-minutes incubation at 23° C. (residual ATP depletion). A final 30-minutes incubation after 12 μL reagent-2 addition (ADP to ATP conversion and luciferin/luciferase reaction) was performed before luminescent signal acquisition (EnVision™ multimode plate reader-PerkinElmer, Inc.). Data from 10 individual concentrations of tested compounds (N=2) were fitted (XLfit™-ID Business Solutions Ltd) to deliver IC50s (compound concentration leading to 50% inhibition of reference enzymatic activity).
The compounds are dissolved to 5 mM in DMSO. When needed, solutions are sonicated in a bath sonicator.
Table 2 provides the IC50 values of the compounds according to the invention, obtained using the above-mentioned kinase assay. Activities are represented as +++, ++ and +, having the following meanings: • +++ means IC50<10 nM • ++ means 10 nM≤IC50<100 nM • + means 100 nM≤IC50<1 μM.

human recombinant LRRK2 protein, sequence (Q5S007 whole entry): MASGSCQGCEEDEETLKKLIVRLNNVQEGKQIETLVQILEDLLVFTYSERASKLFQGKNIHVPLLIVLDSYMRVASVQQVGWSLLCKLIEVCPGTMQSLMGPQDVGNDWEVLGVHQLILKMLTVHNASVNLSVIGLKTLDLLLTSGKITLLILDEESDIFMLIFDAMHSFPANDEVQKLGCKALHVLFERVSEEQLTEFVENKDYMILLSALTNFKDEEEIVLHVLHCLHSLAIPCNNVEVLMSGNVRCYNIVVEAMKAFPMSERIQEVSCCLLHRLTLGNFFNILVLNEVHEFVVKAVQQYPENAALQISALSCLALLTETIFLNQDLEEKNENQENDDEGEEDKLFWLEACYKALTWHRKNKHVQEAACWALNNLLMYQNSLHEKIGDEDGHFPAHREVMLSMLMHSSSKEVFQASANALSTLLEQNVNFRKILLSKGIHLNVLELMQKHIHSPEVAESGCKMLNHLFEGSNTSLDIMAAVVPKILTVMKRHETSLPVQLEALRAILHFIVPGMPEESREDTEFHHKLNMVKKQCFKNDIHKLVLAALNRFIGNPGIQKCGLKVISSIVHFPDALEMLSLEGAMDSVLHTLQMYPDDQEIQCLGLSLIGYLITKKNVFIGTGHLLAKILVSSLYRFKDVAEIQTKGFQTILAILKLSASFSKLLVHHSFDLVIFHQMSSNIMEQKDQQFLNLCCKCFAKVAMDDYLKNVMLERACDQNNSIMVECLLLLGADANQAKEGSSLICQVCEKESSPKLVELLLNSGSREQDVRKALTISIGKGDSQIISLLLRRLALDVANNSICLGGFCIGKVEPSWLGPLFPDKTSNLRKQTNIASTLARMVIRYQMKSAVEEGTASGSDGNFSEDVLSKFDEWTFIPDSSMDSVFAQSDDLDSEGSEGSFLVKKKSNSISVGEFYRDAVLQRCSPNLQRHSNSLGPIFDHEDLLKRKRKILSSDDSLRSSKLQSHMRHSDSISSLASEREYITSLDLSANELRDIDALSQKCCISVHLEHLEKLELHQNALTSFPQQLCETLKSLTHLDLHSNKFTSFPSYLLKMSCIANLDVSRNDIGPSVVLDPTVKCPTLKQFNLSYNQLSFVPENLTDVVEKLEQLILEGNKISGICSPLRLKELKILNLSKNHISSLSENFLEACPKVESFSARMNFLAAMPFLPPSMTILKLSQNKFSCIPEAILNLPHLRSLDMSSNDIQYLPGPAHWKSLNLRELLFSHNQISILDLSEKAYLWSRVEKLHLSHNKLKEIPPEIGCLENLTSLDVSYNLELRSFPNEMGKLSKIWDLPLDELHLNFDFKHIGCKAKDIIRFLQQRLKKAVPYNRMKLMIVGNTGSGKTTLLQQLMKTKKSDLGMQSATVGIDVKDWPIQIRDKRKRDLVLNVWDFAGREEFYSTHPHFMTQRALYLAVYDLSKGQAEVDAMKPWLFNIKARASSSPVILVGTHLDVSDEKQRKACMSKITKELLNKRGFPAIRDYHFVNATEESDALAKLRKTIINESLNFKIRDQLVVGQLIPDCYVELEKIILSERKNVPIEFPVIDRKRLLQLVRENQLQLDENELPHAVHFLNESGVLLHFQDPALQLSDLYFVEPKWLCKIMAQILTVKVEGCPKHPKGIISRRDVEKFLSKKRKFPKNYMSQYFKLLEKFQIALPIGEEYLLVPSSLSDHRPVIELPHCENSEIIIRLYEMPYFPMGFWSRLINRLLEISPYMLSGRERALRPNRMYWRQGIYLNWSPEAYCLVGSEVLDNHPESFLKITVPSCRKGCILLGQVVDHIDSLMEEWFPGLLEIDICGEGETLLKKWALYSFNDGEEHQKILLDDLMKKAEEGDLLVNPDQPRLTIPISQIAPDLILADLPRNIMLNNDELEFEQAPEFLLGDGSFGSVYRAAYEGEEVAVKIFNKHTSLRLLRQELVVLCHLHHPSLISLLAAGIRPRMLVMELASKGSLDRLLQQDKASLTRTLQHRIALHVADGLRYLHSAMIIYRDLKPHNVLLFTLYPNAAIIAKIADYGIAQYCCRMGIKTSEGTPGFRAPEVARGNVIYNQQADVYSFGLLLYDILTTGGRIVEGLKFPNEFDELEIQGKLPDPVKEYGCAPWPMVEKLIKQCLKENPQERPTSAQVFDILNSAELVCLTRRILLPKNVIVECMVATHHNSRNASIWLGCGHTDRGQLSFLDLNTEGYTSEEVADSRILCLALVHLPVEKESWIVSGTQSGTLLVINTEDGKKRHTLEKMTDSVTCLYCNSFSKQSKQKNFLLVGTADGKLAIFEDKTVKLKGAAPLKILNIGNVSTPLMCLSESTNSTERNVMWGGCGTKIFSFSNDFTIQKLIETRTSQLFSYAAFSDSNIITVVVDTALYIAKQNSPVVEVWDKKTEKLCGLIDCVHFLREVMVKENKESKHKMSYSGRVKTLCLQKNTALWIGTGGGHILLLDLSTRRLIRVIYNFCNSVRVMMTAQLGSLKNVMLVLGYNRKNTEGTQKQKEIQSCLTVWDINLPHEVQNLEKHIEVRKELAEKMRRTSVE

Row | Compound | pIC50
1 | CC1CCNC(=O)OCc2cc(F)cc(c2)-c2n[nH]c3ccc(cc23)O1 (single isomer, unassigned) [Example 100, (13R) or (13S)-4-fluoro-13-methyl-8,14-dioxa-10,19,20-triazatetracyclo[13.5.2.1^2,6.0^18,21]tricosa-1(20),2(23),3,5,15(22),16,18(21)-heptaen-9-one] | > 8.00
2 | CC1CCNC(=O)OCc2cc(F)cc(c2)-c2n[nH]c3ccc(cc23)O1 (single isomer, unassigned) [Example 101, (13R) or (13S)-4-fluoro-13-methyl-8,14-dioxa-10,19,20-triazatetracyclo[13.5.2.1^2,6.0^18,21]tricosa-1(20),2(23),3,5,15(22),16,18(21)-heptaen-9-one] | > 8.00
3 | C[C@H]1OC(=O)NCCCOc2ccc3[nH]nc(c3c2)-c2cc(F)cc1c2 (single isomer, unassigned) [Example 108, (7R)- or (7S)-4-fluoro-7-methyl-8,14-dioxa-10,19,20-triazatetracyclo[13.5.2.1^2,6.0^18,21]tricosa-1(20),2,4,6(23),15,17,21-heptaen-9-one] | 7.00 to 8.00
4 | C[C@H]1OC(=O)NCCCOc2ccc3[nH]nc(c3c2)-c2cc(F)cc1c2 (single isomer, unassigned) [Example 109, (7R)- or (7S)-4-fluoro-7-methyl-8,14-dioxa-10,19,20-triazatetracyclo[13.5.2.1^2,6.0^18,21]tricosa-1(20),2,4,6(23),15,17,21-heptaen-9-one] | > 8.00
5 | CCC1OC(=O)NCCCOc2ccc3[nH]nc(c3c2)-c2cccc1c2 (single isomer, unassigned) [Example 115, (7R)- or (7S)-7-ethyl-8,14-dioxa-10,19,20-triazatetracyclo[13.5.2.1^2,6.0^18,21]tricosa-1(20),2,4,6(23),15,17,21-heptaen-9-one] | 6.00 to 7.00
6 | CCC1OC(=O)NCCCOc2ccc3[nH]nc(c3c2)-c2cccc1c2 (single isomer, unassigned) [Example 116, (7R)- or (7S)-7-ethyl-8,14-dioxa-10,19,20-triazatetracyclo[13.5.2.1^2,6.0^18,21]tricosa-1(20),2,4,6(23),15,17,21-heptaen-9-one] | > 8.00
7 | CC1OC(=O)NCC[C@@H](C)Oc2ccc3[nH]nc(c3c2)-c2ccnc1n2 (single isomer, unassigned) [Example 130, (7R,13R)- or (7S,13R)-7,13-dimethyl-8,14-dioxa-5,10,19,20,23-penta azatetracyclo[13.5.2.1^2,6.0^18,21]tricosa-1(20),2,4,6(23),15,17,21-heptaen-9-one] | 7.00 to 8.00
8 | CC1OC(=O)NCC[C@@H](C)Oc2ccc3[nH]nc(c3c2)-c2ccnc1n2 (single isomer, unassigned) [Example 131, (7R,13R)- or (7S,13R)-7,13-dimethyl-8,14-dioxa-5,10,19,20,23-penta azatetracyclo[13.5.2.1^2,6.0^18,21]tricosa-1(20),2,4,6(23),15,17,21-heptaen-9-one] | > 8.00
9 | O=C1NCCCOc2ccc3[nH]nc(c3c2)-c2cncc(c2)CO1 [Example 1, 8,14-dioxa-4,10,19,20-tetraazatetracyclo[13.5.2.1^2,6.0^18,21]tricosa-1(20),2,4, 6(23),15,17,21-heptaen-9-one] | > 8.00
10 | CN1CCCOc2ccc3[nH]nc(c3c2)-c2cncc(c2)COC1=O [Example 2, 10-methyl-8,14-dioxa-4,10,19,20-tetraazatetracyclo[13.5.2.1^2,6.0^18,21]tricosa-1(20),2,4,6(23),15,17,21-heptaen-9-one] | 7.00 to 8.00
11 | O=C1NCCCOc2ccc3[nH]nc(c3c2)-c2cc(F)cc(c2)CO1 [Example 3, 4-fluoro-8,14-dioxa-10,19,20-triazatetracyclo[13.5.2.1^2,6.0^18,21]tricosa-1(20), 2,4,6(23),15,17,21-heptaen-9-one] | > 8.00
12 | O=C1NCCCOc2ccc3[nH]nc(c3c2)-c2cccc(n2)CO1 [Example 4, 8,14-dioxa-10,19,20,23-tetraazatetracyclo[13.5.2.1^2,6.0^18,21]tricosa-1(20),2,4, 6(23),15,17,21-heptaen-9-one] | > 8.00
13 | O=C1NCCCOc2ccc3[nH]nc(c3c2)-c2cccc(c2)CO1 [Example 5, 8,14-dioxa-10,19,20-triazatetracyclo[13.5.2.1^2,6.0^18,21]tricosa-1(20),2,4,6(23), 15,17,21-heptaen-9-one] | > 8.00
14 | CC(C)N1CCCOc2ccc3[nH]nc(c3c2)-c2cncc(c2)COC1=O [Example 6, 10-(propan-2-yl)-8,14-dioxa-4,10,19,20-tetraazatetracyclo[13.5.2.1^2,6.0^18,21]tricosa-1(20),2,4,6(23),15,17,21-heptaen-9-one] | 7.00 to 8.00
15 | O=C1NCCCOc2ccc3[nH]nc(c3c2)-c2ccnc(c2)CO1 [Example 7, 8,14-dioxa-5,10,19,20-tetraazatetracyclo[13.5.2.1^2,6.0^18,21]tricosa-1(20),2,4, 6(23),15,17,21-heptaen-9-one] | > 8.00
16 | COc1cc2cc(c1)-c1n[nH]c3ccc(cc13)OCCCNC(=O)OC2 [Example 8, 4-methoxy-8,14-dioxa-10,19,20-triazatetracyclo[13.5.2.1^2,6.0^18,21]tricosa-1(20),2,4,6(23),15,17,21-heptaen-9-one] | > 8.00
17 | O=C1NCCCOc2ccc3[nH]nc(c3c2)-c2ccc(F)c(c2)CO1 [Example 10, 5-fluoro-8,14-dioxa-10,19,20-triazatetracyclo[13.5.2.1^2,6.0^18,21]tricosa-1(20), 2,4,6(23),15,17,21-heptaen-9-one] | > 8.00
18 | Cc1ccc2cc1COC(=O)NCCCOc1ccc3[nH]nc-2c3c1 [Example 11, 5-methyl-8,14-dioxa-10,19,20-triazatetracyclo[13.5.2.1^2,6.0^18,21]tricosa-1(20),2,4,6(23),15,17,21-heptaen-9-one] | > 8.00
19 | O=C1NCCCOc2ccc3[nH]nc(c3c2)-c2cc(cc(N3CCCC3)c2)CO1 [Example 12, 4-(pyrrolidin-1-yl)-8,14-dioxa-10,19,20-triazatetracyclo[13.5.2.1^2,6.0^18,21]tricosa-1(20),2,4,6(23),15,17,21-heptaen-9-one] | > 8.00
20 | CC(C)N1CCN(c2cc3cc(c2)-c2n[nH]c4ccc(cc24)OCCCNC(=O)OC3)CC1 [Example 13, 4-[4-(propan-2-yl)piperazin-1-yl]-8,14-dioxa-10,19,20-triazatetracyclo[13.5.2.1^2,6.0^18,21]tricosa-1(20),2,4,6(23),15,17,21-heptaen-9-one] | > 8.00
21 | O=C1NCCCOc2ccc3[nH]nc(c3c2)-c2cc(cc(N3CCC4(COC4)C3)c2)CO1 [Example 14, 4-{2-oxa-6-azaspiro[3.4]octan-6-yl}-8,14-dioxa-10,19,20-triazatetracyclo[13.5.2.1^2,6.0^18,21]tricosa-1(20),2,4,6(23),15,17,21-heptaen-9-one] | > 8.00
22 | O=C1NCCCOc2ccc3[nH]nc(c3c2)-c2cc(cc(N3CCN(C4COC4)CC3)c2)CO1 [Example 15, 4-[4-(oxetan-3-yl)piperazin-1-yl]-8,14-dioxa-10,19,20-triazatetracyclo[13.5.2.1^2,6.0^18,21]tricosa-1(20),2,4,6(23),15,17,21-heptaen-9-one] | > 8.00
23 | O=C1NCCCOc2ccc3[nH]nc(c3c2)-c2cc(cc(N3CCOCC3)c2)CO1 [Example 16, 4-(morpholin-4-yl)-8,14-dioxa-10,19,20-triazatetracyclo[13.5.2.1^2,6.0^18,21]tricosa-1(20),2,4,6(23),15,17,21-heptaen-9-one] | > 8.00
24 | C[C@@H]1CN(c2cc3cc(c2)-c2n[nH]c4ccc(cc24)OCCCNC(=O)OC3)C[C@H](C)O1 [Example 17, 4-[(2R,6S)-2,6-dimethylmorpholin-4-yl]-8,14-dioxa-10,19,20-triazatetra cyclo[13.5.2.1^2,6.0^18,21]tricosa-1(20),2,4,6(23),15,17,21-heptaen-9-one] | > 8.00
25 | Cc1cc2cc(c1)-c1n[nH]c3ccc(cc13)OCCCNC(=O)OC2 [Example 18, 4-methyl-8,14-dioxa-10,19,20-triazatetracyclo[13.5.2.1^2,6.0^18,21]tricosa-1(20),2,4,6(23),15,17,21-heptaen-9-one] | > 8.00
26 | COc1ccc2cc1COC(=O)NCCCOc1ccc3[nH]nc-2c3c1 [Example 19, 5-methoxy-8,14-dioxa-10,19,20-triazatetracyclo[13.5.2.1^2,6.0^18,21]tricosa-1(20),2,4,6(23),15,17,21-heptaen-9-one] | > 8.00
27 | O=C1NCCCOc2ccc3[nH]nc(c3c2)-c2cc(cc(N3CCC(F)(F)CC3)c2)CO1 [Example 20, 4-(4,4-difluoropiperidin-1-yl)-8,14-dioxa-10,19,20-triazatetracyclo[13.5.2.1^2,6.0^18,21]tricosa-1(20),2,4,6(23),15,17,21-heptaen-9-one] | > 8.00
28 | O=C1NCCCOc2ccc3[nH]nc(c3c2)-c2cc(cc(N3CCC(F)(F)C3)c2)CO1 [Example 21, 4-(3,3-difluoropyrrolidin-1-yl)-8,14-dioxa-10,19,20-triazatetracyclo[13.5.2.1^2,6.0^18,21]tricosa-1(20),2,4,6(23),15,17,21-heptaen-9-one] | > 8.00
29 | CC1OC(=O)NCCCOc2ccc3[nH]nc(c3c2)-c2cccc1c2 (centres unmarked) [Example 22, 7-methyl-8,14-dioxa-10,19,20-triazatetracyclo[13.5.2.1^2,6.0^18,21]tricosa-1(20), 2,4,6(23),15,17,21-heptaen-9-one] | > 8.00

Source: patent US20230357269A1 (LES LABORATOIRES SERVIER, priority 2020, published 2023)
